Data published in the NIST ThermoML archive (doi:10.1016/j.fluid.2019.05.003).

Assay: xn = mol fraction of the nth substance listed
Settings: 101 kPa, Liquid; for viscosity: Falling or rolling sphere viscometry; for mass density: Vibrating tube method

CC[N+](C)(C)CCO.[Br-] [ethyl(2-hydroxyethyl)dimethylammonium bromide] + O
Settings | mass density [kg/m3] | viscosity [mPa·s]
298.15 K, x1 = 0.026 | 1061.1 | 1.249
298.15 K, x1 = 0.049 | 1103.4 | 1.613
298.15 K, x1 = 0.068 | 1132.6 | 2.066
298.15 K, x1 = 0.086 | 1155.4 | 2.594
298.15 K, x1 = 0.119 | 1190.7 | 4.028
298.15 K, x1 = 0.156 | 1220 | 6.186
298.15 K, x1 = 0.185 | 1238.4 | 9.494
298.15 K, x1 = 0.214 | 1254.1 | 13
298.15 K, x1 = 0.257 | 1273.4 | 20.35
298.15 K, x1 = 0.319 | 1293.9 | 35.33
303.15 K, x1 = 0.026 | 1059.2 | 1.117
303.15 K, x1 = 0.049 | 1101.3 | 1.463
303.15 K, x1 = 0.068 | 1130.3 | 1.836
303.15 K, x1 = 0.086 | 1153 | 2.292
303.15 K, x1 = 0.119 | 1188.1 | 3.487
303.15 K, x1 = 0.156 | 1217.2 | 5.347
303.15 K, x1 = 0.185 | 1235.6 | 8.22
303.15 K, x1 = 0.214 | 1251.3 | 11.13
303.15 K, x1 = 0.257 | 1270.5 | 17.24
303.15 K, x1 = 0.319 | 1290.9 | 29.38
308.15 K, x1 = 0.026 | 1057.2 | 1.017
308.15 K, x1 = 0.049 | 1099.1 | 1.296
308.15 K, x1 = 0.068 | 1127.9 | 1.645
308.15 K, x1 = 0.086 | 1150.4 | 2.046
308.15 K, x1 = 0.119 | 1185.4 | 3.095
308.15 K, x1 = 0.156 | 1214.5 | 4.593
308.15 K, x1 = 0.185 | 1232.8 | 7.127
308.15 K, x1 = 0.214 | 1248.4 | 9.581
308.15 K, x1 = 0.257 | 1267.6 | 14.63
308.15 K, x1 = 0.319 | 1288 | 24.38
313.15 K, x1 = 0.026 | 1055.1 | 0.917
313.15 K, x1 = 0.049 | 1096.7 | 1.171
313.15 K, x1 = 0.068 | 1125.4 | 1.484
313.15 K, x1 = 0.086 | 1147.9 | 1.839
313.15 K, x1 = 0.119 | 1182.7 | 2.771
313.15 K, x1 = 0.156 | 1211.7 | 4.112
313.15 K, x1 = 0.185 | 1229.9 | 6.185
313.15 K, x1 = 0.214 | 1245.5 | 8.263
313.15 K, x1 = 0.257 | 1264.6 | 12.43
313.15 K, x1 = 0.319 | 1285 | 20.45
318.15 K, x1 = 0.026 | 1052.6 | 0.841
318.15 K, x1 = 0.049 | 1093.9 | 1.068
318.15 K, x1 = 0.068 | 1122.8 | 1.35
318.15 K, x1 = 0.086 | 1145.2 | 1.663
318.15 K, x1 = 0.119 | 1179.9 | 2.486
318.15 K, x1 = 0.156 | 1208.8 | 3.655
318.15 K, x1 = 0.185 | 1227 | 5.378
318.15 K, x1 = 0.214 | 1242.5 | 7.16
318.15 K, x1 = 0.257 | 1261.7 | 10.68
318.15 K, x1 = 0.319 | 1282 | 17.3
323.15 K, x1 = 0.026 | 1050.7 | 0.775
323.15 K, x1 = 0.049 | 1091.4 | 0.98
323.15 K, x1 = 0.068 | 1120.1 | 1.234
323.15 K, x1 = 0.086 | 1142.5 | 1.513
323.15 K, x1 = 0.119 | 1177.1 | 2.242
323.15 K, x1 = 0.156 | 1205.9 | 3.307
323.15 K, x1 = 0.185 | 1224.1 | 4.688
323.15 K, x1 = 0.214 | 1239.6 | 6.248
323.15 K, x1 = 0.257 | 1258.7 | 9.249
323.15 K, x1 = 0.319 | 1279 | 14.91
328.15 K, x1 = 0.026 | 1048.6 | 0.72
328.15 K, x1 = 0.049 | 1088.9 | 0.902
328.15 K, x1 = 0.068 | 1117.2 | 1.132
328.15 K, x1 = 0.086 | 1139.7 | 1.382
328.15 K, x1 = 0.119 | 1174.2 | 2.034
328.15 K, x1 = 0.156 | 1203 | 2.962
328.15 K, x1 = 0.185 | 1221.2 | 4.143
328.15 K, x1 = 0.214 | 1236.6 | 5.498
328.15 K, x1 = 0.257 | 1255.7 | 8.108
328.15 K, x1 = 0.319 | 1276 | 12.84
333.15 K, x1 = 0.026 | 1046.5 | 0.669
333.15 K, x1 = 0.049 | 1085.9 | 0.837
333.15 K, x1 = 0.068 | 1114.5 | 1.046
333.15 K, x1 = 0.086 | 1136.8 | 1.273
333.15 K, x1 = 0.119 | 1171.2 | 1.857
333.15 K, x1 = 0.156 | 1200.1 | 2.679
333.15 K, x1 = 0.185 | 1218.2 | 3.576
333.15 K, x1 = 0.214 | 1233.6 | 4.864
333.15 K, x1 = 0.257 | 1252.7 | 7.142
333.15 K, x1 = 0.319 | 1273 | 11.49
338.15 K, x1 = 0.026 | 1044.3 | 0.632
338.15 K, x1 = 0.049 | 1083.9 | 0.786
338.15 K, x1 = 0.068 | 1112.2 | 0.965
338.15 K, x1 = 0.086 | 1134.1 | 1.174
338.15 K, x1 = 0.119 | 1168.1 | 1.707
338.15 K, x1 = 0.156 | 1197.1 | 2.439
338.15 K, x1 = 0.185 | 1215.2 | 3.122
338.15 K, x1 = 0.214 | 1230.6 | 4.315
338.15 K, x1 = 0.257 | 1249.7 | 6.33
338.15 K, x1 = 0.319 | 1270 | 10.29
343.15 K, x1 = 0.026 | 1042.2 | 0.588
343.15 K, x1 = 0.049 | 1081.4 | 0.737
343.15 K, x1 = 0.068 | 1109.6 | 0.906
343.15 K, x1 = 0.086 | 1131.4 | 1.112
343.15 K, x1 = 0.119 | 1165.6 | 1.569
343.15 K, x1 = 0.156 | 1194 | 2.202
343.15 K, x1 = 0.185 | 1212.1 | 2.835
343.15 K, x1 = 0.214 | 1227.6 | 3.849
343.15 K, x1 = 0.257 | 1246.6 | 5.548
343.15 K, x1 = 0.319 | 1266.9 | 9.319
348.15 K, x1 = 0.026 | 1040.1 | 0.56
348.15 K, x1 = 0.049 | 1078.9 | 0.679
348.15 K, x1 = 0.068 | 1107 | 0.853
348.15 K, x1 = 0.086 | 1128.3 | 1.071
348.15 K, x1 = 0.119 | 1162.8 | 1.454
348.15 K, x1 = 0.156 | 1190.9 | 2.022
348.15 K, x1 = 0.185 | 1209.4 | 2.576
348.15 K, x1 = 0.214 | 1224.5 | 3.479
348.15 K, x1 = 0.257 | 1243.6 | 4.96
348.15 K, x1 = 0.319 | 1263.9 | 8.658
